Entries after “also recorded” stand apart in the source; their conditions may differ.
Experiments:
[1] = system: polymorphonuclear leukocyte infiltration (myeloperoxidase activity); assay: Myeloperoxidase (MPO) activity assay in hippocampus and neocortex after MCA-O and reperfusion; type: in vivo, mouse; conditions: 1 h MCA-O, 48 h reperfusion
Description: Middle Cerebral Artery Occlusion (MCA-O) and reperfusion. Experimental protocols were reviewed and approved by the Institutional Animal Care and Use Committee of Louisiana State University Health Sciences Center, New Orleans. Mice (20-25 g body wt) were induced with 2% isoflurane in a mixture of 70% nitrous oxide and 30% oxygen. Anesthesia was maintained with 1% isoflurane. Temperature was maintained at 36.5-37.5° C. using a Harvard homeothermic blanket. P 10 polyethylene catheters were placed in the femoral artery and vein, and the blood pressure was monitored. Arterial blood was analyzed for PO2, PCO2, and pH after 1 h of ischemia and 30 min after the onset of reperfusion. The common carotid and external carotid arteries were temporarily ligated with a retracting suture, and the external carotid artery was dissected just proximal to its bifurcation. The occluding filament was introduced from the external carotid artery and advanced to the internal carotid artery. The AVM micro clip was removed. The filament was advanced so that the blunted tip lay in the anterior cerebral artery and the side of the filament occluded the origin of the middle cerebral artery (MCA). The stump of the external carotid artery was ligated, and tension on the retracting suture to the common carotid artery was gently released, restoring blood flow to the carotid system.
Occlusion of the middle cerebral artery (MCA-O) was maintained for 1 h; reperfusion was then established by delicate retrieval of the occluding suture from the arterial lumen, restoring blood flow to the region of the MCA. The mice were then killed, and the hippocampus and brain cortex rapidly dissected and frozen. Samples were kept at −80° C. until analysis. In some experiments, aspirin (7.5 mg/kg) was administered by gavage 15 min before MCA-O.
Polymorphonuclear leukocyte infiltration measurement by the myeloperoxidase (MPO) assay. Inhibition of leukocyte infiltration by 10,17S-docosatriene (NPD1) or docosahexaenoic acid (DHA) was measured in mouse hippocampus and neocortex after 1 h of middle cerebral artery occlusion (MCA-O) and 48 h of reperfusion. Lipids were delivered for each experiment by perfusion (250 nl/h) through Alzet minipumps implanted into the third ventricle. Hippocampus and neocortex from the ipsilateral (MCA-O-reperfusion) and contralateral sides were rapidly dissected. Brain samples were assayed for myeloperoxidase activity as described in Huang, J., Choudhri, T. F., Winfree, C. J., McTaggart, R. A., Kiss, S., Mocco, J., Kim, L. J., Protopsaltis, T. S., Zhang, Y., Pinsky, D. J., and Connolly Jr., E. S. (2000) Stroke 31, 3047-3053. Briefly, brain tissues were homogenized in 10 mM phosphate buffer (pH 7.4), then frozen and thawed with liquid N2 followed by sonication. Samples were precipitated at 10,000×g for 10 min, then aliquots of supernatants were added to 10 mM phosphate buffer (pH 6.0) and a substrate solution containing o-dianisidine (Sigma; St. Louis, Mo.) and 0.025% hydrogen peroxide, and finally incubated at 37° C. for 45 min. Spectrophotometric detection was obtained at 460 nm.

[2] = system: polymorphonuclear leukocyte infiltration; assay: Zymosan-induced peritonitis, leukocyte infiltration; type: in vivo, mouse; conditions: zymosan-induced peritonitis, FVB mice; i.v. bolus 1.5 min before Zymosan A; lavage at 2 h
Description: The inhibition of leukocyte infiltration in zymosan-induced peritonitis by 4,17S-diHDHA and 10,17S-docosatriene (NPD1) was tested. […] Peritonitis was induced in 6- to 8-week-old male FVB mice (Charles River Laboratories) by peritoneal injection of 1 mg Zymosan A. The compounds 4,17S- and 10,17S-diHDHA were injected by intravenous bolus injection, 1.5 minutes before Zymosan A treatment. Two hours after induction of peritonitis, rapid peritoneal lavages were collected, and cell type enumeration was performed.

ARPE-19 cells = assay: Hoechst staining, TNFα/H2O2 oxidative stress-induced apoptosis; type: cell-based, human; conditions: 50 nM added with TNFα 10 ng/ml plus H2O2 (400-800 μM); 14 h
Description: ARPE-19 cell culture and chemicals: ARPE-19 cells (L. M. Hjelmeland, ATCC # CRL-2302) were grown and maintained in DMEM-F12 medium supplemented with 10% FBS and incubated at 37° C. with a constant supply of 5% CO2. ARPE-19 cells are spontaneously transformed human retinal pigment epithelial cells that conserve cellular biological and functional properties. All chemicals were purchased from Sigma Chemical Co. (St. Louis, Mo.) unless otherwise indicated.
Hoechst staining: ARPE-19 cells were loaded with 2 μM Hoechst dissolved in a Locke's solution (Promega, Madison, Wis.) and incubated one h at 37° C. before imaging. Cells were then washed once with PBS and viewed using a Nikon DIAPHOT 200 microscope under UV fluorescence. Images were recorded by a Hamamatsu Color Chilled 3CCD camera and Photoshop 5.0 software, as described in Mukherjee, P. K., DeCoster, M. A., Campbell, F. Z., Davis, R. J. & Bazan, N. G. (1999) J. Biol. Chem. 274:6493-6498.
Several experimental conditions that result in reproducible oxidative-stress-induced apoptosis in ARPE-19 cells were tested. One condition chosen was the combination of TNFα with H2O2, both in relatively low concentrations. Typically 10 ng/ml of TNFα and 400-800 μM H2O2 led to marked increase in Hoechst-positive cells (Data not shown). Neither TNFα nor H2O2 alone triggered a significant effect under these conditions. (Data not shown).
Serum starvation made ARPE-19 cells more sensitive to oxidative stress-triggered apoptosis induced by TNFα/H2O2. Cells were grown in culture for 72 h in the presence of BSA (3.35 μM) with or without DHA (6.7 μM). Endogenous NPD1 formation was enhanced by BSA-DHA (FIG. 12A).
In the next experiment, confluent cells were starved for 8 h, then TNFα/H2O2 was added and incubated for 14 h before staining with Hoechst reagent. NPD1 (50 nM) was added at the time of adding TNFα/H2O2. […] When the TNFα concentration (10 ng/ml) was maintained and H2O2 concentration was decreased from 800 to 400 μM, fewer Hoechst-positive cells were seen. […] (Data not shown).

Bcl-2 gene expression = assay: HGU133 GeneChip DNA array in HN cells: Bcl-2; type: cell-based, human; conditions: Aβ42 25 μM, DHA 50 nM or NPD1 50 nM, 18 h, nsc = no significant change
Bcl-xL gene expression = assay: HGU133 GeneChip DNA array in HN cells: Bcl-xL; type: cell-based, human; conditions: Aβ42 25 μM, DHA 50 nM or NPD1 50 nM, 18 h, nsc = no significant change
[3] = system: NF-κB-DNA binding activity; assay: EMSA of NF-κB in hippocampus after MCA-O; type: in vivo, mouse; conditions: ipsilateral hippocampus; 1 h MCA-O, 2 h reperfusion; infused into third ventricle 3 h at 0.25 μl/h (NPD1 0.16 μg/ml)
Description: Electrophoretic mobility-shift assay (EMSA) of human AP1, HIF-1α, NF-κBp50/p65, and STAT-1α. Nuclear protein extracts (NPXTs) were prepared from one to three 3.5 cm-diameter wells of HN cells and quantitated. NPXTs (5 μg) derived from HN cells were incubated with[γ-^32P]-ATP (˜3000 Ci/mmol)-end-labeled AP1, HIF-1α, NF-κκBp50/p65, or STAT-1α consensus and mutant oligonucleotides in 5-μl volumes, reacted for 30 min on ice, analyzed on 5% or 10% acrylamide/90 mM Tris-borate pH 8.4, 1 mM EDTA (TBE) gels, dried onto 2-mm Whatman filter paper at 80° C. for 2 h, and phosphorimaged using a Typhoon Variable Mode Imager (Amersham Pharmacia Biotech, Piscataway, N.J. ).
FIGS. 7A, 7B, and 7C show mouse hippocampus after 1 h MCA-O was followed by 2 h reperfusion, where either vehicle, DHA, or 10,17S-docosatriene (NPD1) (0.16 μg/ml) was infused into the third ventricle for 3 h at 0.25 μl/h. […] NF-κB was increased over two fold in the ipsilateral hippocampus after MCA-O, and the infusion of either DHA or 10,17S-docosatriene (NPD1) inhibited ischemia-reperfusion-induced NF-κB activation by 28% and 48%, respectively (FIG. 7A).

COX-2 expression = assay: COX-2 mRNA abundance in ipsilateral hippocampus after MCA-O; type: in vivo, mouse; conditions: 1 h MCA-O, 2 h reperfusion, infused into third ventricle (NPD1 0.16 μg/ml)
Description: COX-2 RNA abundance in hippocampus and HN cells. Abundance of human-specific COX-1 and COX-2 RNA message was assayed using RT-PCR as described in Bazan, N. G., and Lukiw, W. J. (2002) J. Biol. Chem. 277, 30359-30367.
To determine COX-1 and COX-2 expression, mRNA abundance in the ipsilateral hippocampus was measured. […] A 3-fold increase of COX-2 was seen due to MCA-O reperfusion (FIG. 7C). The infusion of the precursor DHA as well as its product 10,17S-docosatriene (NPD1) inhibited COX-2 expression by 14% and 52%, respectively.

[4] = system: prostaglandin E2 (PGE2) formation; assay: ELISA of PGE2 in hippocampus during reperfusion after MCA-O; type: in vivo, mouse; conditions: aspirin 7.52 mg/kg by gavage 15 min before MCA-O; C57BL/6 mice
Description: To confirm that the aspirin dose administered by gavage did reach the brain, the time course for prostaglandin E2, LTB4, and lipoxin A4 production was determined in the hippocampus in parallel assays. The time course of prostaglandin E2, leukotriene B4, and lipoxin A4 formation was followed in mouse hippocampus after 1-h middle cerebral artery occlusion (MCA-O), followed by reperfusion with (FIG. 2B) or without (FIG. 2A) aspirin treatment. Detection of the compounds was performed by sensitive and specific ELISA, in tandem, for prostaglandin E2 (PGE2), leukotriene B4 (LTB4), and lipoxins (LXA4) (Neogen, Lexington, Ky.). […] Maximal LTB4 was generated in aspirin-treated hippocampus by 8 h, as was the case with lipoxin A4, which also peaked within 8 h.

[5] = system: Aβ40 and Aβ42 peptide secretion; assay: Aβ40 and Aβ42 peptide secretion by aging HN cells (Western immunoblot of medium); type: cell-based, human; conditions: aging HN cells cultured up to 8 weeks; DHA 50 nM or IL-1β 10 ng/ml continuously in medium
Description: Human Neural (HN) Cells. HN cells in primary culture, starting as primary spheroids (CC-2599, Clonetics, Walkersville, Md.), were grown in neural progenitor maintenance medium (NPMM) containing human epidermal and fibroblast growth factor, gentamicin/amphotericin (G/A1000), and neural survival factor-1 for up to 8 weeks. […] (Data not shown).
Additions of IL-1β and DHA to the Growth Medium. After 1 week of HN cell growth, IL-1β (10 ng/ml) or DHA (50 nM) was added to the NPMM culture medium.
To determine the effect of cytokine-mediated stress on aging HN cells, AP peptide release was assayed in the continuous presence in the culture medium of IL-1β, an inducer of reactive oxygen species (ROS) generation and oxidative stress as described in Lynch, A. M., Moore, M., Craig, S., Lonergan, P. E., Martin, D. S., Lynch, M. A. (2003) J. Biol. Chem., 278: 51075-51084; and Kaur, J., Dhaunsi, G. S., Turner, R. B. (2004) Med. Princ. Pract., 13: 26-29. Parallel experiments in aging HN cells were performed in the presence of control neuro-progenitor maintenance medium (NPMM) and the continuous presence of NPMM+DHA.

[6] = 1 μg or 3 μg over 48 h (dose of the value not stated)

## 10,17S-docosatriene methyl ester [10,17S-docosatriene (NPD1) methyl ester]
[1]; [6]
  inhibition of ipsilateral myeloperoxidase activity, hippocampus: 49%
  inhibition of ipsilateral myeloperoxidase activity, neocortex: 97%

## CCC=CCC(O)C=CC=CCC=CCC=CC=CC(O)CCC(=O)O (stereo not drawn) [4,17S-diHDHA]
[2]
  inhibition of polymorphonuclear leukocyte infiltration: dose-dependent inhibition; also recorded: some inhibition

## O=C(O)CCC[C@H](O)\C=C/C=C/C=C/[C@H](O)C/C=C\CCCCCO [20-OH-LTB4]
ARPE-19 cells
  inhibition of oxidative stress (TNFα/H2O2)-induced Hoechst-positive cells / apoptosis: neither PGE2, LTB4, nor 20-OH-LTB4 (each at 50 nM) was able to elicit the degree of inhibition

## CCCCC/C=C\C/C=C\C/C=C\C/C=C\CCCC(=O)O [Arachidonic acid, arachidonic acid]
ARPE-19 cells
  inhibition of oxidative stress (TNFα/H2O2)-induced Hoechst-positive cells / apoptosis: partially effective

## CC/C=C\C/C=C\C/C=C\C/C=C\C/C=C\C/C=C\CCC(=O)O [DHA, docosahexaenoic acid]
Bcl-2 gene expression
  Bcl-2 gene expression, fold change over untreated controls: +2.5 fold
Bcl-xL gene expression
  Bcl-xL gene expression, fold change over untreated controls: +1.5 fold
[3]
  inhibition of ischemia-reperfusion-induced NF-κB activation: 28%
[1]; 2 μg over 48 h perfusion
  inhibition of myeloperoxidase activity, hippocampus: 60%
  inhibition of myeloperoxidase activity, neocortex: no inhibition
[1]; 20 μg over 48 h perfusion
  inhibition of myeloperoxidase activity, hippocampus: 72%
  inhibition of myeloperoxidase activity, neocortex: 40%
[1]; 200 μg over 48 h perfusion
  inhibition of myeloperoxidase activity, hippocampus: 82%
  inhibition of myeloperoxidase activity, neocortex: 73%
COX-2 expression
  inhibition of COX-2 expression (mRNA): 14%

## CCCCC/C=C\C[C@@H](O)/C=C/C=C/C=C\[C@@H](O)CCCC(=O)O [LTB4, leukotriene B4]
ARPE-19 cells
  inhibition of oxidative stress (TNFα/H2O2)-induced Hoechst-positive cells / apoptosis: partially inhibitory

## CCCCC[C@H](O)/C=C/[C@H]1[C@H](O)CC(=O)[C@@H]1C/C=C\CCCC(=O)O [PGE2, prostaglandin E2]
ARPE-19 cells
  inhibition of oxidative stress (TNFα/H2O2)-induced Hoechst-positive cells / apoptosis: neither PGE2, LTB4, nor 20-OH-LTB4 (each at 50 nM) was able to elicit the degree of inhibition

## CC(=O)Oc1ccccc1C(=O)O [aspirin]
[4]
  effect on accumulation of PGE2 in hippocampus within 8 h of reperfusion: inhibited

## IL-1β: human recombinant interleukin 1-beta, cytokine stressor
[5]
  effect on Aβ peptide (Aβ40 and Aβ42) secretion: enhanced
